Water-solubility and solubility data for 1 compound are collected here from patent US10752637B2, “Bis-diox(ol)ane compounds” (Koninklijke Coöperatie Cosun U.A., priority 2016, dated 2020).

The nature of this series: water-solubility of the product.

In brackets after ≈: the same amount, converted by molar mass.

One may read the solubility as the dissolved amount per volume that the medium holds. For the compound `CC1(C)OC(C2OC(C)(C)O[C@H]2C(=O)NCCO)[C@@H](C(=O)NCCO)O1` (some centres unmarked) [GalX-di-ethanolamide], the water-solubility entry (in water, at ambient temperature) was “approximately 25 wt. %”. The solubility (water) is around 350 mg/mL (≈ 930 mM).
